According to US9193719B2, “1,2,4-triazol-5-ones and analogs exhibiting anti-cancer and anti-proliferative activities” (Deciphera Pharmaceuticals, LLC, priority 2013, dated 2015):

Key:
[1] = molecular target: T1, unphosphorylated c-KIT kinase (uKIT, Seq. ID no. 2) (Homo sapiens, UniProt P10721); assay: uKit kinase enzymatic assay (pyruvate kinase/lactate dehydrogenase coupled); format: biochemical; conditions: ATP 2000 μM, rate 3 to 4 h
T1 construct: uKit with N-terminal GST fusion used for screening
T1 sequence (P10721 with tags, fused parts or gaps): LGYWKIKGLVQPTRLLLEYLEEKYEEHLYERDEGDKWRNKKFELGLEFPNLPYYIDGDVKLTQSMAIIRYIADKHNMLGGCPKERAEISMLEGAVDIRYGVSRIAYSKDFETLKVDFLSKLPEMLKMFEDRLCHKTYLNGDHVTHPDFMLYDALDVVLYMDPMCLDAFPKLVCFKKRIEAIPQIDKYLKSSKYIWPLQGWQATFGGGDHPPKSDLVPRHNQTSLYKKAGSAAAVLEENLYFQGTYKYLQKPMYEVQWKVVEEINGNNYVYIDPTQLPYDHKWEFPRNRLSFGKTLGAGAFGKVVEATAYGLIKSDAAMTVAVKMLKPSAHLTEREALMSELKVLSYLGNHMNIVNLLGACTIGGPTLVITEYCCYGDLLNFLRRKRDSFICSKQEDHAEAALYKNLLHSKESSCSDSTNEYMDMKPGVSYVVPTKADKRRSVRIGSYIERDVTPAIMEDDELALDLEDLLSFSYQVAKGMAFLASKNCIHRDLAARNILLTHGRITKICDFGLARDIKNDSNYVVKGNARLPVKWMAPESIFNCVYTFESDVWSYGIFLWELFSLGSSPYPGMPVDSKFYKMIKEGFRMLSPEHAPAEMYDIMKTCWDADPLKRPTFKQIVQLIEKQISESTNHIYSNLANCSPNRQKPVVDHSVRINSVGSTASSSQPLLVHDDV
Experimental: uKit Kinase (Seq. ID No. 2) Assay
Activity of unphosphorylated c-KIT kinase (uKIT, Seq. ID no. 2) was determined by following the production of ADP from the KIT kinase reaction with ATP and poly E4Y as substrates through coupling with the pyruvate kinase/lactate dehydrogenase system (e.g., Schindler et al. Science (2000) 289: 1938-1942). In this assay, the oxidation of NADH (thus the decrease at A340 nm) was continuously monitored spectrophometrically. The reaction mixture (100 μl) contained unphosphorylated KIT (12 nM), polyE4Y (1 mg/mL), MgCl2 (10 mM), pyruvate kinase (4 units), lactate dehydrogenase (0.7 units), phosphoenol pyruvate (1 mM), and NADH (0.28 mM) and ATP (2000 μM) in 90 mM Tris buffer containing 0.2% octyl-glucoside and 1% DMSO, pH 7.5. The inhibition reaction was started by mixing serial diluted test compound with the above reaction mixture. The absorption at 340 nm was monitored continuously for 4 hours at 30° C. on Synergy 2 plate reader (BioTech). Reaction rates around 3 to 4 h time frame were used to calculate % inhibitions, from which IC50 values were generated.

[2] = molecular target: T2, unphosphorylated PDGFRβ kinase (uPDGFRβ, Seq. ID No. 3) (Homo sapiens, UniProt P09619); assay: uPDGFRβ kinase enzymatic assay (pyruvate kinase/lactate dehydrogenase coupled); format: biochemical; conditions: ATP 500 μM, rate 1.5 to 2.5 h
T2 construct: purchased DeCode
T2 sequence (P09619 557-1106): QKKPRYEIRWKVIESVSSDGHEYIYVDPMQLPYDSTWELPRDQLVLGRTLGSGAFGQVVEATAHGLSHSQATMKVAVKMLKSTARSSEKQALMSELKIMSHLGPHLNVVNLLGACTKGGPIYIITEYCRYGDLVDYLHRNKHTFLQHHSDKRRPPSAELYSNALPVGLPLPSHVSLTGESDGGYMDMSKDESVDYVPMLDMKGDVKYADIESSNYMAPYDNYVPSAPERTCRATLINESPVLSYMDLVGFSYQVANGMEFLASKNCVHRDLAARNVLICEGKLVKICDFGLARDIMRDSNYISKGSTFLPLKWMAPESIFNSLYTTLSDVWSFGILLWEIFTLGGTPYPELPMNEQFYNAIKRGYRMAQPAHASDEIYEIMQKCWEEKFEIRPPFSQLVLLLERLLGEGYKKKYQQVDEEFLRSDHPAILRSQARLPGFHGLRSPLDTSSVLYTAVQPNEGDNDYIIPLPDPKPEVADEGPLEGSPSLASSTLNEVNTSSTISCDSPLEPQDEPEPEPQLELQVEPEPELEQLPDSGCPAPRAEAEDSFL
Experimental: Unphosphorylated PDGFRβ (uPDGFRβ) Kinase (Seq. ID No. 3) Assay
Activity of unphosphorylated PDGFRβ kinase (uPDGFRβ, Seq. ID No. 3) was determined by following the production of ADP from the kinase reaction with ATP and poly E4Y as substrates through coupling with the pyruvate kinase/lactate dehydrogenase system (e.g., Schindler et al. Science (2000) 289: 1938-1942). In this assay, the oxidation of NADH (thus the decrease at A340 nm) was continuously monitored spectrophometrically. The reaction mixture (100 μL) contained PDGFRβ (DeCode, 15.7 nM), polyE4Y (2.5 mg/mL), MgCl2 (10 mM), pyruvate kinase (4 units), lactate dehydrogenase (0.7 units), phosphoenol pyruvate (1 mM) and NADH (0.28 mM) and ATP (500 μM) in a 90 mM Tris buffer containing 0.2% octyl-glucoside and 1% DMSO, at pH 7.5. The inhibition reaction was started by mixing serial diluted test compound with the above reaction mixture. The absorption at 340 nm was monitored continuously for 4 h at 30° C. on a Polarstar Optima or Synergy 2 plate reader. The reaction rate was calculated using the 1.5 to 2.5 h time frame. Percent inhibition was obtained by comparison of reaction rate with that of a control (i.e. with no test compound). IC50 values were calculated from a series of percent inhibition values determined at a range of inhibitor concentrations using software routines as implemented in the GraphPad Prism software package.

[3] = tested on: M-NFS-60 cells; assay: M-NFS-60 cell proliferation assay (resazurin); format: cell-based; conditions: 67 h incubation
Experimental: M-NFS-60 cells (catalog #CRL-1838) were obtained from the American Type Culture Collection (ATCC, Manassas, Va.). Briefly, cells were grown in suspension in RPMI 1640 medium supplemented with 10% characterized fetal bovine serum (Invitrogen, Carlsbad, Calif.), 0.05 mM 2-mercaptoethanol, and 20 ng/mL mouse recombinant macrophage colony stimulating factor (M-CSF) at 37° C., 5% CO2, and 95% humidity. Cells were allowed to expand until reaching saturation at which point they were subcultured or harvested for assay use.
M-NFS-60 Cell Proliferation Assay
A serial dilution of test compound was dispensed into a 384-well black clear bottom plate (Corning, Corning, N.Y.). Two thousand five hundred cells were added per well in 50 μL complete growth medium. Plates were incubated for 67 h at 37° C., 5% CO2, and 95% humidity. At the end of the incubation period 10 μL of a 440 μM solution of resazurin (Sigma, St. Louis, Mo.) in PBS was added to each well and incubated for an additional 5 h at 37° C., 5% CO2, and 95% humidity. Plates were read on a Synergy2 reader (Biotek, Winooski, Vt.) using an excitation of 540 nm and an emission of 600 nm. IC50 values were calculated from a series of percent inhibition values determined at a range of inhibitor concentrations using software routines as implemented in the GraphPad Prism software package.

[4] = tested on: osteoclast precursors; assay: Osteoclast tartrate-resistant acid phosphatase assay; format: cell-based; conditions: RANKL and M-CSF, 7-14 days, tartrate-resistant acid phosphatase activity
Experimental: Osteoclast Tartrate-Resistant Acid Phosphatase Assay
A serial dilution of test compound was dispensed into a 384-well black clear bottom plate (Nalge Nunc International, Rochester, N.Y.). Compound was diluted by the addition of DMEM media supplemented with 10% characterized fetal bovine serum (Invitrogen, Carlsbad, Calif.). Diluted compound was transferred to a 384-well black clear bottom plate. Two-thousand five hundred osteoclast precursors (Lonza, Walkersville, Md.) were added per well in growth media containing Receptor Activator of Nuclear Factor Kappa-beta ligand (RANKL) and M-CSF (R&D Systems, Minneapolis, Minn.). Plates were incubated for 7-14 days at 37 degrees Celsius, 5% CO2, and 95% humidity to allow differentiation of osteoclast precursors. At the end of the incubation period, 10 μL of supernatant from each well was transferred to a clear 384-well plate. Tartrate-resistant acid phosphatase activity in the supernatant samples was determined using an acid phosphatase assay kit (Sigma, St. Louis, Mo.). Absorbance was measured at 550 nm using a plate reader. Data was analyzed using Prism software (Graphpad, San Diego, Calif.) to calculate IC50 values.

Compound | IC50 [1] | IC50 [2] | IC50 [4] | IC50 [3]
Cc1nc(-n2nc(Cc3ccccc3)[nH]c2=O)ccc1Oc1ccnc(-c2cnn(C)c2)c1 [Example 2, 3-benzyl-1-(6-methyl-5-((2-(1-methyl-1H-pyrazol-4-yl)pyridin-4-yl)oxy)pyridin-2-yl)-1H-1,2,4-triazol-5(4H)-one] | 100 to 1000 nM | 100 to 1000 nM | 10 to 100 nM | 10 to 100 nM
Cc1nc(-n2nc(C(C)(C)C)[nH]c2=O)ccc1Oc1ccnc(NC(=O)N(C)C)c1 [Example 30, 3-(4-((6-(3-(tert-butyl)-5-oxo-4,5-dihydro-1H-1,2,4-triazol-1-yl)-2-methylpyridin-3-yl)oxy)pyridin-2-yl)-1,1-dimethylurea] | > 1000 nM | > 1000 nM | 10 to 100 nM | > 1000 nM
Cc1ccc(-c2cc(Oc3ccc(-n4nc(C(C)(C)C)[nH]c4=O)nc3C)ccn2)cn1 [Example 10, 3-(tert-butyl)-1-(6-methyl-5-((6′-methyl-[2,3′-bipyridin]-4-yl)oxy)pyridin-2-yl)-1H-1,2,4-triazol-5(4H)-one] | > 1000 nM | > 1000 nM | 10 to 100 nM | 10 to 100 nM
Cc1nc(-n2nc(C3(C(F)(F)F)CCC3)[nH]c2=O)ccc1Oc1ccnc(-c2cnn(C)c2)c1 [Example 43, 1-(6-methyl-5-((2-(1-methyl-1H-pyrazol-4-yl)pyridin-4-yl)oxy)pyridin-2-yl)-3-(1-(trifluoromethyl)cyclobutyl)-1H-1,2,4-triazol-5(4H)-one] | 10 to 100 nM | 100 to 1000 nM | 10 to 100 nM | 100 to 1000 nM
Cc1nc(-n2nc(C(C)(C)C)[nH]c2=O)ccc1Oc1ccnc(-c2ccc(C3CCN(C)CC3)cc2)c1 [Example 14, 3-(tert-butyl)-1-(6-methyl-5-((2-(4-(1-methylpiperidin-4-yl)phenyl)pyridin-4-yl)oxy)pyridin-2-yl)-1H-1,2,4-triazol-5(4H)-one] | 10 to 100 nM | > 1000 nM | ≤ 10 nM | 10 to 100 nM
Cc1cc(-n2nc(C(C)(C)C)[nH]c2=O)nc(C)c1Oc1ccnc(-c2cnn(C)c2)c1 [Example 33, 3-(tert-butyl)-1-(4,6-dimethyl-5-((2-(1-methyl-1H-pyrazol-4-yl)pyridin-4-yl)oxy)pyridin-2-yl)-1H-1,2,4-triazol-5(4H)-one] | 100 to 1000 nM | 100 to 1000 nM | 100 to 1000 nM | 100 to 1000 nM
Cc1nc(-n2nc(C3CCCCC3)[nH]c2=O)ccc1Oc1ccnc(-c2cnn(C)c2)c1 [Example 6, 3-cyclohexyl-1-(6-methyl-5-((2-(1-methyl-1H-pyrazol-4-yl)pyridin-4-yl)oxy)pyridin-2-yl)-1H-1,2,4-triazol-5(4H)-one] | 10 to 100 nM | 100 to 1000 nM | 10 to 100 nM | ≤ 10 nM

Further lines, with some results ahead:

IC50 [1] | IC50 [2] | IC50 [4] | Compound | IC50 [3]
100 to 1000 nM | > 1000 nM | 10 to 100 nM | Cc1nc(-n2nc(C(C)C)[nH]c2=O)ccc1Oc1ccnc(-c2cnn(C)c2)c1 [Example 5, 3-isopropyl-1-(6-methyl-5-((2-(1-methyl-1H-pyrazol-4-yl)pyridin-4-yl)oxy)pyridin-2-yl)-1H-1,2,4-triazol-5(4H)-one] | 10 to 100 nM
> 1000 nM | > 1000 nM | 10 to 100 nM | COC(C)(C)c1nn(-c2ccc(Oc3ccnc(-c4cnn(C)c4)c3)c(C)n2)c(=O)[nH]1 [Example 16, 3-(2-methoxypropan-2-yl)-1-(6-methyl-5-((2-(1-methyl-1H-pyrazol-4-yl)pyridin-4-yl)oxy)pyridin-2-yl)-1H-1,2,4-triazol-5(4H)-one] | 100 to 1000 nM
> 1000 nM | > 1000 nM | 10 to 100 nM | CCn1cc(-c2cc(Oc3ccc(-n4nc(C(C)(C)C)[nH]c4=O)nc3C)ccn2)cn1 [Example 38, 3-(tert-butyl)-1-(5-((2-(1-ethyl-1H-pyrazol-4-yl)pyridin-4-yl)oxy)-6-methylpyridin-2-yl)-1H-1,2,4-triazol-5(4H)-one] | 10 to 100 nM
100 to 1000 nM | > 1000 nM | 10 to 100 nM | Cc1nc(-n2nc(C3(C)CC3)[nH]c2=O)ccc1Oc1ccnc(-c2cnn(C)c2)c1 [Example 27, 1-(6-methyl-5-((2-(1-methyl-1H-pyrazol-4-yl)pyridin-4-yl)oxy)pyridin-2-yl)-3-(1-methylcyclopropyl)-1H-1,2,4-triazol-5(4H)-one] | 10 to 100 nM
100 to 1000 nM | > 1000 nM | 100 to 1000 nM | Cc1nc(-n2nc(C(C)(C)C)n(C)c2=O)ccc1Oc1ccnc(-c2cnn(C)c2)c1 [Example 13, 3-(tert-butyl)-4-methyl-1-(6-methyl-5-((2-(1-methyl-1H-pyrazol-4-yl)pyridin-4-yl)oxy)pyridin-2-yl)-1H-1,2,4-triazol-5(4H)-one] | 100 to 1000 nM
10 to 100 nM | 100 to 1000 nM | 10 to 100 nM | Cc1nc(-n2nc(CC(C)(C)C)[nH]c2=O)ccc1Oc1ccnc(-c2cnn(C)c2)c1 [Example 36, 1-(6-methyl-5-((2-(1-methyl-1H-pyrazol-4-yl)pyridin-4-yl)oxy)pyridin-2-yl)-3-neopentyl-1H-1,2,4-triazol-5(4H)-one] | 10 to 100 nM
100 to 1000 nM | > 1000 nM | 10 to 100 nM | Cc1nc(-n2nc(C(C)(C)C)oc2=O)ccc1Oc1ccnc(-c2cnn(C)c2)c1 [Example 49, 5-(tert-butyl)-3-(6-methyl-5-((2-(1-methyl-1H-pyrazol-4-yl)pyridin-4-yl)oxy)pyridin-2-yl)-1,3,4-oxadiazol-2(3H)-one] | 10 to 100 nM
100 to 1000 nM | 100 to 1000 nM | ≤ 10 nM | Cc1nc(-n2nc(C3CCC3)[nH]c2=O)ccc1Oc1ccnc(-c2cnn(C)c2)c1 [Example 37, 3-cyclobutyl-1-(6-methyl-5-((2-(1-methyl-1H-pyrazol-4-yl)pyridin-4-yl)oxy)pyridin-2-yl)-1H-1,2,4-triazol-5(4H)-one] | 10 to 100 nM
10 to 100 nM | > 1000 nM | 10 to 100 nM | CCC(C)(C)c1nn(-c2ccc(Oc3ccnc(-c4cnn(C)c4)c3)c(C)n2)c(=O)[nH]1 [Example 25, 1-(6-methyl-5-((2-(1-methyl-1H-pyrazol-4-yl)pyridin-4-yl)oxy)pyridin-2-yl)-3-(tert-pentyl)-1H-1,2,4-triazol-5(4H)-one] | 10 to 100 nM
